# Source: patent publication US9611248B2, “Chemical compounds” (Syngenta Participations AG, priority 2013, dated 2017)
# System: a variety of test species
# Assay: Post-emergence herbicidal activity
# Format: in vivo
# Parameters: key to ABUTH (Abutilon theophrasti) damage score / AMARE (Amaranthus retroflexus) damage score / ALOMY (Alopecurus myosuroides) damage score / ECHCG (Echinochloa crus-galli) damage score / ZEAMX (Zea mays) damage score / SOLNI (Solanum nigrum) damage score: 0 = no damage to plant, 5 = total damage to plant
# Details: rate 1000 g/ha, evaluated after 13 days
# Description: Seeds of a variety of test species were sown in standard soil in pots. After 8 days cultivation (post-emergence) under controlled conditions in a glasshouse (at 24/16° C., day/night; 14 hours light; 65% humidity), the plants were sprayed with an aqueous spray solution derived from the formulation of the technical active ingredient in acetone/water (50:50) solution containing 0.5% Tween 20 (polyoxyethelyene sorbitan monolaurate, CAS RN 9005-64-5). The test plants were then grown in a glasshouse under controlled conditions (at 24/16° C., day/night; 14 hours light; 65% humidity) and watered twice daily. After 13 days, the test was evaluated (5=total damage to plant; 0=no damage to plant, NC=not captured).
SMILES,ABUTH (Abutilon theophrasti) damage score,ALOMY (Alopecurus myosuroides) damage score,AMARE (Amaranthus retroflexus) damage score,ECHCG (Echinochloa crus-galli) damage score,SETFA (Setaria faberi) damage score,ZEAMX (Zea mays) damage score
CC1=C(Cl)C(O)N(c2cc(C(F)(F)F)c(C(=O)NC(C)(C)C)cn2)C1=O (centres unmarked) [AA46],5,3,5,3,3,0
CCOC(=O)c1cnc(N2C(=O)C(C)=C(Cl)C2O)cc1Cl (centres unmarked) [AA47],1,1,0,2,3,1
CC1=C(Cl)C(O)N(c2cc(C)c(-c3ccsc3)cn2)C1=O (centres unmarked) [AA48],4,1,5,3,4,0
CC1=C(Cl)C(O)N(c2cc(C(C)C)c(C(=O)NC(C)(C)C)cn2)C1=O (centres unmarked) [AA49],3,2,–,1,3,0
CCc1cc(N2C(=O)C(C)=C(Cl)C2O)ncc1Br (centres unmarked) [AA50],3,2,2,3,3,1
CC1=C(Br)C(O)N(c2cc(C(F)(F)F)ccn2)C1=O (centres unmarked) [AB1],3,2,5,3,4,0
"COC1=C(C)C(=O)N(c2cc(C(F)(F)F)c(C(C)=O)cn2)C1O (centres unmarked) [AD2, 1-[5-acetyl-4-(trifluoromethyl)-2-pyridyl]-2-hydroxy-3-methoxy-4-methyl-2H-pyrrol-5-one]",5,5,5,5,5,2
COC1=C(C)C(=O)N(c2nccc(C(F)(F)F)c2C#N)C1O (centres unmarked) [AD5],5,4,5,4,4,2
COC1=C(C)C(=O)N(c2nccc(C(F)(F)F)c2F)C1O (centres unmarked) [AD7],5,5,5,5,5,3
"COC1=C(C)C(=O)N(c2cc(C(F)(F)F)c(OC)cn2)C1O (centres unmarked) [AD10, 2-hydroxy-3-methoxy-1-[5-methoxy-4-(trifluoromethyl)-2-pyridyl]-4-methyl-2H-pyrrol-5-one]",5,5,5,5,5,2
CCC/C=C/c1cnc(N2C(=O)C(C)=C(OC)C2O)cc1C(F)(F)F (centres unmarked) [AD13],5,5,5,5,5,1
"COC1=C(C)C(=O)N(c2cc(C(F)(F)F)c(SC)cn2)C1O (centres unmarked) [AD14, 2-hydroxy-3-methoxy-4-methyl-1-[5-methylsulfanyl-4-(trifluoromethyl)-2-pyridyl]-2H-pyrrol-5-one]",5,3,4,5,5,1
"COC1=C(C)C(=O)N(c2cc(C(F)(F)F)c(C#C[Si](C)(C)C)cn2)C1O (centres unmarked) [AD15, 2-hydroxy-3-methoxy-4-methyl-1-[4-(trifluoromethyl)-5-(2-trimethylsilylethynyl)-2-pyridyl]-2H-pyrrol-5-one]",3,3,5,4,5,2
COC1=C(C)C(=O)N(c2cc(C(C)F)ccn2)C1O (centres unmarked) [AD18],4,3,1,4,1,0
C#Cc1cnc(N2C(=O)C(C)=C(OC)C2O)cc1C(F)(F)F (centres unmarked) [AD20],4,4,5,4,5,0
"COC1=C(C)C(=O)N(c2cc(C(F)(F)F)c(C=C(C)C)cn2)C1O (centres unmarked) [AD21, 2-hydroxy-3-methoxy-4-methyl-1-[5-(2-methylprop-1-enyl)-4-(trifluoromethyl)-2-pyridyl]-2H-pyrrol-5-one]",5,2,5,5,4,0
COC1=C(C)C(=O)N(c2nccc(C(F)(F)F)c2Br)C1O (centres unmarked) [AD25],1,1,2,1,2,1
"COC1=C(C)C(=O)N(c2cc(C(F)(F)F)c(C#N)cn2)C1O (centres unmarked) [AD26, 6-(2-hydroxy-3-methoxy-4-methyl-5-oxo-2H-pyrrol-1-yl)-4-(trifluoromethyl)pyridine-3-carbonitrile]",5,4,5,5,4,2
C=Cc1cnc(N2C(=O)C(C)=C(OC)C2O)cc1C(F)(F)F (centres unmarked) [AD27],5,4,5,5,4,2
COC1=C(C)C(=O)N(c2cc(C(F)(F)F)c(C)cn2)C1O (centres unmarked) [AD28],5,4,5,5,5,4
COC1=C(C)C(=O)N(c2ncc(Br)c(C(F)(F)F)c2Br)C1O (centres unmarked) [AD29],0,1,0,0,0,1
COC1=C(C)C(=O)N(c2cc(C(F)(F)F)c(Cl)cn2)C1O (centres unmarked) [AD30],5,5,5,5,4,1
